We go through six compounds from ChEMBL document CHEMBL1944550, “In vitro and in silico studies on substrate recognition and acceptance of human PKMYT1, a Cdk1 inhibitory kinase” (Bioorg Med Chem Lett, 2012).

Assay [1] concerns the target T1, Membrane-associated tyrosine- and threonine-specific cdc2-inhibitory kinase (Homo sapiens, UniProt Q99640).
T1 sequence (Q99640 whole entry): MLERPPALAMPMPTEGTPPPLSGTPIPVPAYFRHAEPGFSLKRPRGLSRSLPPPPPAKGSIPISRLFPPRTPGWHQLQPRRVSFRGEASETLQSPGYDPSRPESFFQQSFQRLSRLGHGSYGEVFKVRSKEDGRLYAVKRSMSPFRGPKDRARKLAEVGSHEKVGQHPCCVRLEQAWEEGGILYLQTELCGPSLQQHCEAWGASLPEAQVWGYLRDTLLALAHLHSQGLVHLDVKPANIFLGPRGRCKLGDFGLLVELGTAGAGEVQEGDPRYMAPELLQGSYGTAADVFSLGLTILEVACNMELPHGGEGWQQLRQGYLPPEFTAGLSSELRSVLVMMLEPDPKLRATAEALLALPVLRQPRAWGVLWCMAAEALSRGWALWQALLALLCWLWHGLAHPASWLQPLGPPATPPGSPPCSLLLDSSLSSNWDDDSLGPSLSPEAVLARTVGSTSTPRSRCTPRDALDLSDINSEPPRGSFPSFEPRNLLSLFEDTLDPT
The experiment in a line: Activity at full length human Myt1 expressed in human HEK293 cells at 10 uM after 30 mins by fluorescence polarization immunoassay. (In general: In fluorescence polarisation assays a small probe gives low polarisation when free and higher when bound to something large.)

Assay [2] deals with T2, Membrane-associated tyrosine- and threonine-specific cdc2-inhibitory kinase (Homo sapiens) (UniProt Q99640).
T2 sequence (whole entry): T1 sequence (Q99640 whole entry)
In words: Activity at full length human Myt1 expressed in human HEK293 cells assessed as Cdk1 phosphorylation at Thr14 at 10 uM after 30 mins by fluorescence polarization immunoassay.

Assay [3] concerns the target T2, Membrane-associated tyrosine- and threonine-specific cdc2-inhibitory kinase (Homo sapiens). In words: Activity at full length human Myt1 expressed in human HEK293 cells assessed as Cdk1 phosphorylation at Try15 at 10 uM after 30 mins by fluorescence polarization immunoassay.
The target is the same in assay [4]. The experiment in a line: Activity at human Myt1 (75 to 362) expressed in Escherichia coli BL21 (DE3) cells assessed as Cdk1 phosphorylation at Thr14 at 10 uM after 30 mins by fluorescence polarization immunoassay.
Assay [5] has the same target. The experiment in a line: Activity at human Myt1 (75 to 362) expressed in Escherichia coli BL21 (DE3) cells assessed as Cdk1 phosphorylation at Try15 at 10 uM after 30 mins by fluorescence polarization immunoassay.
For assay [6], the target named is T1, Membrane-associated tyrosine- and threonine-specific cdc2-inhibitory kinase. In words: Competitive inhibition of human Myt1 by TR-FRET assay. Background: TR-FRET usually uses a lanthanide donor and a delayed reading to cut background.

pEC50, pIC50: −log10 of the molar value. Active and inactive are the calls of the source. No cut-off for these calls is given here. Residues, ends and D or L forms follow the SMILES beside them.

As usually defined, the pEC50 is the negative decadic logarithm of the EC50, by convention in mol/L. Read a high pEC50 as a low EC50. In assay [1], `CC[C@H](C)[C@H](NC(=O)[C@H](CCCCN)NC(=O)[C@@H](N)CCC(N)=O)C(=O)NCC(=O)N[C@@H](CCC(=O)O)C(=O)NCC(=O)N[C@H](C(=O)N[C@@H](Cc1ccc(OP(=O)(O)O)cc1)C(=O)NCC(=O)N[C@H](C(=O)N[C@H](C(=O)N[C@@H](Cc1ccc(O)cc1)C(=O)N[C@@H](CCCCN)C(=O)N[C@@H](CS)C(=O)O)C(C)C)C(C)C)[C@@H](C)O` (HELM PEPTIDE1{Q.K.I.G.E.G.T.[O=C([C@H](Cc1ccc(OP(=O)(O)O)cc1)N[*:1])[*:2]].G.V.V.Y.K.C}$$$$V2.0) gave a pEC50 of 7.74. The result in assay [2], in assay [3], in assay [4] and in assay [5] was inactive.

For `CC[C@H](C)[C@H](NC(=O)[C@H](CCCCN)NC(=O)[C@@H](N)CCC(N)=O)C(=O)NCC(=O)N[C@@H](CCC(=O)O)C(=O)NCC(=O)N[C@H](C(=O)N[C@@H](Cc1ccc(O)cc1)C(=O)NCC(=O)N[C@H](C(=O)N[C@H](C(=O)N[C@@H](Cc1ccc(O)cc1)C(=O)N[C@@H](CCCCN)C(=O)N[C@@H](CS)C(=O)O)C(C)C)C(C)C)[C@@H](C)OP(=O)(O)O` (HELM PEPTIDE1{Q.K.I.G.E.G.[C[C@@H](OP(=O)(O)O)[C@H](N[*:1])C(=O)[*:2]].Y.G.V.V.Y.K.C}$$$$V2.0), the result in assay [2], in assay [3], in assay [4] and in assay [5] was inactive.

Regarding `CC[C@H](C)[C@H](NC(=O)[C@H](CCCCN)NC(=O)[C@@H](N)CCC(N)=O)C(=O)NCC(=O)N[C@@H](CCC(=O)O)C(=O)NCC(=O)N[C@H](C(=O)N[C@@H](Cc1ccc(OP(=O)(O)O)cc1)C(=O)NCC(=O)N[C@H](C(=O)N[C@H](C(=O)N[C@@H](Cc1ccc(O)cc1)C(=O)N[C@@H](CCCCN)C(=O)N[C@@H](CS)C(=O)O)C(C)C)C(C)C)[C@@H](C)OP(=O)(O)O` (HELM PEPTIDE1{Q.K.I.G.E.G.[C[C@@H](OP(=O)(O)O)[C@H](N[*:1])C(=O)[*:2]].[O=C([C@H](Cc1ccc(OP(=O)(O)O)cc1)N[*:1])[*:2]].G.V.V.Y.K.C}$$$$V2.0), the outcome in assay [2], in assay [3], in assay [4] and in assay [5] was inactive.

Usually pIC50 stands for the negative decadic logarithm of the IC50, by convention in mol/L. A high value points to a low IC50. Compound `CCN(CC)CCOc1ccc(Nc2ncc3cc(-c4c(Cl)cccc4Cl)c(=O)n(C)c3n2)cc1` [PD-0166285] gave a pIC50 in assay [6] of 8.15.

H-EKIGEGTYGVVYKC-OH: the result in assay [2], in assay [3], in assay [4] and in assay [5] was inactive.

Consider H-QKIGEGTYGVVYKC-OH, for which the result in assay [2], in assay [3], in assay [4] and in assay [5] was inactive.
